From patent US20260356856A1, “KRAS G12S AND G12C INHIBITORS” (MIRATI THERAPEUTICS, INC., priority 2023, published 2026)

Assays:
[1] = biological target: T1, KRas G12C (Homo sapiens, UniProt P01116, G12C); experiment: KRas binding assay, TR-FRET displacement of Cy5 labelled tracer; conditions: 60-minute incubation at room temperature, 1% DMSO, pH 7.5
T1 construct: Biotinylated KRas (corresponding to amino acids 1-169, produced at Accelegan Inc.); biotin (biotinylated); purchased Accelegan Inc
Method in brief: (§1)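 Room-temperature incubation (60 min) of compound with biotinylated KRas 1-169, tracer and Tb-streptavidin preceded the TR-FRET read. Final DMSO was 1%; buffer pH 7.5. Percent-of-control values went into a 4-parameter equation to give IC50.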

[2] = biological target: T2, KRas G12S (Homo sapiens, UniProt P01116, G12S); experiment: as above; conditions: 60-minute incubation at room temperature, 1% DMSO, pH 7.5
T2 construct: Biotinylated KRas (corresponding to amino acids 1-169, produced at Accelegan Inc.); biotin (biotinylated); purchased Accelegan Inc
Method in brief: as §1

[3] = biological target: T3, KRas WT (Homo sapiens, UniProt P01116); experiment: as above; conditions: 60-minute incubation at room temperature, 1% DMSO, pH 7.5
T3 construct: Biotinylated KRas (corresponding to amino acids 1-169, produced at Accelegan Inc.); biotin (biotinylated); purchased Accelegan Inc
Method in brief: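 TR-FRET tracer-displacement readout after 60 min at room temperature, using KRas residues 1-169 (biotinylated) with terbium streptavidin and a Cy5 tracer. Buffer: 50 mM HEPES pH 7.5, 5 mM MgCl2, 0.005% Tween-20, 1 mM DTT, 1% DMSO final. IC50 from 4-parameter fit of POC data.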

[4] = biological target: T4, KRas-mediated phosphorylation of ERK in A549 cells (Homo sapiens, UniProt P01116, G12S); experiment: Inhibition of KRas-mediated phosphorylation of ERK (HTRF), A549 cells; format: cell-based; conditions: HTRF pERK, 3 h incubation
T4 construct: pERK HTRF read-out

[5] = biological target: T5, KRas-mediated phosphorylation of ERK in H358 cells (Homo sapiens, UniProt P01116, G12C); experiment: Inhibition of KRas-mediated phosphorylation of ERK (HTRF), H358 cells; format: cell-based; conditions: HTRF pERK, 3 h incubation
T5 construct: pERK HTRF read-out

[6] = biological target: T6, KRas-mediated phosphorylation of ERK in MKN1 cells (Homo sapiens, UniProt P01116); experiment: Inhibition of KRas-mediated phosphorylation of ERK (HTRF), MKN1 cells; format: cell-based; conditions: MKN1 cells (KRas WT); HTRF pERK; 3 h incubation
T6 construct: pERK HTRF read-out
Protocol: Inhibition of KRas Phosphorylation of ERK (HTRF) by Exemplary Compounds of Formula (Ia) or (Ib)
Cisbio HTRF Advanced pERK Assay Catalog #64AERPEH • Cells: MKN1, PSN1 • Procedure: • 1. Day 1: Seed 6,000 cells/well −25 μl/well in 384-well white solid bottom plate; RPM1_10% FBS. Incubate overnight at 37 °C/5% CO2. • 2.

T5 sequence (P01116 1-188 isoform P01116-2 G12C): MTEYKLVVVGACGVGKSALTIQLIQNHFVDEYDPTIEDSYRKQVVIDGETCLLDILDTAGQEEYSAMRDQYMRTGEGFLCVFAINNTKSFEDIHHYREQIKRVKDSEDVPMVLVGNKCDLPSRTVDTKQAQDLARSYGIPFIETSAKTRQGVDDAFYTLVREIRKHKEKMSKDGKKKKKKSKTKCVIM
T1 sequence (P01116 1-169 isoform P01116-2 G12C): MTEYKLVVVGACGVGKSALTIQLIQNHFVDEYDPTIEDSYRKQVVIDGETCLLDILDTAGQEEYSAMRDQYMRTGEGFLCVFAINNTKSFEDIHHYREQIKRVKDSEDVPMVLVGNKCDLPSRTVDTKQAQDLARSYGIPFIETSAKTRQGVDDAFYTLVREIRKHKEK
T4 sequence (P01116 1-188 isoform P01116-2 G12S): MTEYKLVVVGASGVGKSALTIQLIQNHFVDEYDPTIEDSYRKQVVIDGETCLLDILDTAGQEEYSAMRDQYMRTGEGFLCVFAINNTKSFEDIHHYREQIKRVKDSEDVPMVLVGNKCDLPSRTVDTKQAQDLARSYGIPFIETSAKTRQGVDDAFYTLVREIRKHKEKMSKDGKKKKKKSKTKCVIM
T3 sequence (P01116 1-169 isoform P01116-2): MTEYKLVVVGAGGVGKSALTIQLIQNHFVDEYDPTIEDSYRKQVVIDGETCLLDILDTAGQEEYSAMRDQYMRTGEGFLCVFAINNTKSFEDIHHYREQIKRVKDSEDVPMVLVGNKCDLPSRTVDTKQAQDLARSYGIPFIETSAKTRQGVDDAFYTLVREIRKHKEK
T6 sequence (P01116 1-188 isoform P01116-2): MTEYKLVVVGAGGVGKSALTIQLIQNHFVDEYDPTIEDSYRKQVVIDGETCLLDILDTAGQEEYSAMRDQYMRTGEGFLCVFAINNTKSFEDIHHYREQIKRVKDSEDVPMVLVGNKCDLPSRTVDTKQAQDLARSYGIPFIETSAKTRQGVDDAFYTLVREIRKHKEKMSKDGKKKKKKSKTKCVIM
T2 sequence (P01116 1-169 isoform P01116-2 G12S): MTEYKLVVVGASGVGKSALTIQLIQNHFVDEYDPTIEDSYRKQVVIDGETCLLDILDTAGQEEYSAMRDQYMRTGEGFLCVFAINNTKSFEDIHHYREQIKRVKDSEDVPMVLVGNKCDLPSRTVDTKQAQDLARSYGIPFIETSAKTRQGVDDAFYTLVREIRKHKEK

| SMILES | IC50 [1] | IC50 [2] | IC50 [3] | IC50 [4] | IC50 [5] | IC50 [6] |
| --- | --- | --- | --- | --- | --- | --- |
| CCc1c(F)ccc2cc(O)cc(-c3ncc4c(N5CCN(C(=O)n6cccn6)CC5)nc(OC[C@@]56CCCN5C[C@H](F)C6)nc4c3F)c12 [Example 60, (4-(7-(8-ethyl-7-fluoro-3-hydroxynaphthalen-1-yl)-8-fluoro-2-(((2R,7aS)-2-fluorotetrahydro-1H-pyrrolizin-7a(5H)-yl)methoxy)pyrido[4,3-d]pyrimidin-4-yl)piperazin-1-yl)(1H-pyrazol-1-yl) methanone] | 76 nM | 115 nM | 24 nM | 2350 nM | 450 nM | – |
| CCc1c(F)ccc2cc(O)cc(-c3ncc4c(N5CCC(C(=O)N(C)c6ccccn6)CC5)nc(OC[C@@]56CCCN5C[C@H](F)C6)nc4c3F)c12 [Example 62, 1-(7-(8-ethyl-7-fluoro-3-hydroxynaphthalen-1-yl)-8-fluoro-2-(((2R,7aS)-2-fluorotetrahydro-1H-pyrrolizin-7a(5H)-yl)methoxy)pyrido[4,3-d]pyrimidin-4-yl)-N-methyl-N-(pyridin-2-yl)piperidine-4-carboxamide] | 619 nM | 6330 nM | 64 nM | 7060 nM | 8390 nM | – |
| CCc1c(F)ccc2cc(O)cc(N3CCc4c(nc(OC[C@@]56CCCN5C[C@H](F)C6)nc4N4CCCC(C(=O)n5cccn5)CC4)C3)c12 (stereo partly drawn) [Example 143, (1-(7-(8-ethyl-7-fluoro-3-hydroxynaphthalen-1-yl)-2-(((2R,7aS)-2-fluorotetrahydro-1H-pyrrolizin-7a(5H)-yl)methoxy)-5,6,7,8-tetrahydropyrido[3,4-d]pyrimidin-4-yl)azepan-4-yl)(1H-pyrazol-1-yl)methanone] | 56 nM | 8 nM | 166 nM | 38 nM | 931 nM | – |
| N#Cc1c(N)sc2c(F)ccc(-c3c(Cl)cc4c(N5CCN(S(=O)(=O)n6cnnc6)CC5)nc(OC[C@@]56CCCN5C[C@H](F)C6)nc4c3F)c12 [Example 187, 4-(4-(4-((4H-1,2,4-triazol-4-yl)sulfonyl)piperazin-1-yl)-6-chloro-8-fluoro-2-(((2R,7aS)-2-fluorotetrahydro-1H-pyrrolizin-7a(5H)-yl)methoxy)quinazolin-7-yl)-2-amino-7-fluorobenzo[b]thiophene-3-carbonitrile] | 40 nM | 33 nM | 11 nM | 1360 nM | – | 127 nM |
| CCc1c(F)ccc2cc(O)cc(N3CCc4c(nc(OC[C@@]56CCCN5C[C@H](F)C6)nc4N(C)CCC(=O)n4ccc(C)n4)C3)c12 [Example 196, 3-((7-(8-ethyl-7-fluoro-3-hydroxynaphthalen-1-yl)-2-(((2R,7aS)-2-fluorotetrahydro-1H-pyrrolizin-7a(5H)-yl)methoxy)-5,6,7,8-tetrahydropyrido[3,4-d]pyrimidin-4-yl)(methyl)amino)-1-(3-methyl-1H-pyrazol-1-yl) propan-1-one] | 40 nM | 45 nM | 55 nM | > 10000 nM | – | 2200 nM |
| CCc1c(F)ccc2cc(O)cc(-c3ncc4c(N(C)CCCC(=O)N(C)C(C)=O)nc(OC[C@@]56CCCN5C[C@@]5(CC5(F)F)C6)nc4c3F)c12 [Example 293, N-acetyl-4-((2-(((1S,7a'S)-2,2-difluorodihydro-1′H,3′H-spiro[cyclopropane-1,2′-pyrrolizin]-7a′ (5′H)-yl)methoxy)-7-(8-ethyl-7-fluoro-3-hydroxynaphthalen-1-yl)-8-fluoropyrido[4,3-d]pyrimidin-4-yl)(methyl)amino)-N-methylbutanamide] | 72 nM | 21 nM | 219 nM | 67 nM | – | 699 nM |

These reach a lower IC50 [1]. Values come first.

| IC50 [1] | IC50 [2] | IC50 [3] | IC50 [4] | IC50 [5] | IC50 [6] | SMILES |
| --- | --- | --- | --- | --- | --- | --- |
| < 2 nM | 9 nM | 11 nM | 149 nM | 22 nM | – | CCc1c(F)ccc2cc(O)cc(-c3ncc4c(N5CCC(C=O)CC5)nc(OC[C@@]56CCCN5C[C@H](F)C6)nc4c3F)c12 [Example 15, 1-(7-(8-ethyl-7-fluoro-3-hydroxynaphthalen-1-yl)-8-fluoro-2-(((2R,7aS)-2-fluorotetrahydro-1H-pyrrolizin-7a(5H)-yl)methoxy)pyrido[4,3-d]pyrimidin-4-yl)piperidine-4-carbaldehyde] |
| 9 nM | 1250 nM | 729 nM | > 10000 nM | 913 nM | – | CCc1c(F)ccc2cc(O)cc(-c3ncc4c(N5CCC(C(=O)Oc6ccc(F)c(F)c6)CC5)nc(OC[C@@]56CCCN5C[C@H](F)C6)nc4c3F)c12 [Example 40, 3,4-difluorophenyl 1-(7-(8-ethyl-7-fluoro-3-hydroxynaphthalen-1-yl)-8-fluoro-2-(((2R,7aS)-2-fluorotetrahydro-1H-pyrrolizin-7a(5H)-yl)methoxy)pyrido[4,3-d]pyrimidin-4-yl)piperidine-4-carboxylate] |
| 13 nM | 17 nM | 69 nM | 66 nM | 2800 nM | – | CCc1c(F)ccc2cc(O)cc(-c3ncc4c(N5CCC(C(=O)n6ccc(C)n6)C5)nc(OC[C@@]56CCCN5C[C@H](F)C6)nc4c3F)c12 (stereo partly drawn) [Example 56, (1-(7-(8-ethyl-7-fluoro-3-hydroxynaphthalen-1-yl)-8-fluoro-2-(((2R,7aS)-2-fluorotetrahydro-1H-pyrrolizin-7a(5H)-yl)methoxy)pyrido[4,3-d]pyrimidin-4-yl)pyrrolidin-3-yl)(3-methyl-1H -pyrazol-1-yl)methanone] |
| 18 nM | 12 nM | 6 nM | 250 nM | – | 65 nM | Cc1ccn(C(=O)[C@H]2CCN(c3nc(OC[C@@]45CCCN4C[C@H](F)C5)nc4c(F)c(-c5ccc(F)c6sc(N)c(C#N)c56)c(Cl)cc34)C[C@H]2C)n1 [Example 185, 2-amino-4-(6-chloro-8-fluoro-2-(((2R,7aS)-2-fluorotetrahydro-1H-pyrrolizin-7a(5H)-yl)methoxy)-4-((cis)-3-methyl-4-(3-methyl-1H-pyrazole-1-carbonyl)piperidin-1-yl)quinazolin-7-yl)-7-fluorobenzo[b]thiophene-3-carbonitrile] |
| 5 nM | 11 nM | 113 nM | 230 nM | – | 2140 nM | CCc1c(F)ccc2cc(O)cc(N3CCc4c(nc(OC[C@@]56CCCN5C[C@H](F)C6)nc4NCCCC(=O)n4ccc(C)n4)C3)c12 [Example 193, 4-((7-(8-ethyl-7-fluoro-3-hydroxynaphthalen-1-yl)-2-(((2R,7aS)-2-fluorotetrahydro-1H-pyrrolizin-7a(5H)-yl)methoxy)-5,6,7,8-tetrahydropyrido[3,4-d]pyrimidin-4-yl)amino)-1-(3-methyl-1H-pyrazol-1-yl) butan-1-one] |
| 4 nM | 7 nM | 209 nM | 130 nM | – | 766 nM | CCc1c(F)ccc2cc(O)cc(N3CCc4c(nc(OC[C@@]56CCCN5C[C@H](F)C6)nc4N(C)CCCC(=O)n4ccc(C)n4)C3)c12 [Example 194, 4-((7-(8-ethyl-7-fluoro-3-hydroxynaphthalen-1-yl)-2-(((2R,7aS)-2-fluorotetrahydro-1H-pyrrolizin-7a(5H)-yl)methoxy)-5,6,7,8-tetrahydropyrido[3,4-d]pyrimidin-4-yl)(methyl)amino)-1-(3-methyl-1H-pyrazol-1-yl) butan-1-one] |
| 21 nM | 28 nM | 176 nM | 164 nM | – | 4950 nM | CCc1c(F)ccc2cc(O)cc(N3CCc4c(nc(OC[C@@]56CCCN5C[C@H](F)C6)nc4N4CCC(C(=O)n5ccc(C)n5)C4)C3)c12 (stereo partly drawn) [Example 197, (1-(7-(8-ethyl-7-fluoro-3-hydroxynaphthalen-1-yl)-2-(((2R,7aS)-2-fluorotetrahydro-1H-pyrrolizin-7a(5H)-yl)methoxy)-5,6,7,8-tetrahydropyrido[3,4-d]pyrimidin-4-yl)pyrrolidin-3-yl)(3-methyl-1H-pyrazol-1-yl)methanone] |
| 6 nM | 8 nM | 11 nM | 278 nM | – | 83 nM | CON(C)C(=O)CCCN(C)c1nc(OC[C@@]23CCCN2C[C@H](F)C3)nc2c(F)c(-c3ccc(F)c4sc(N)c(C#N)c34)c(Cl)cc12 [Example 233, 4-((7-(2-amino-3-cyano-7-fluorobenzo[b]thiophen-4-yl)-6-chloro-8-fluoro-2-(((2R,7aS)-2-fluorotetrahydro-1H-pyrrolizin-7a(5H)-yl)methoxy)quinazolin-4-yl)(methyl)amino)-N-methoxy-N-methylbutanamide] |
